From patent publication US20090118194A1, “Measurement of melanocortin peptides and uses thereof” (Auckland UniServices Limited, priority 2002, published 2009)

What was measured:
hypothalamic proteins [1] = experiment: Hypothalamic proteome analysis after i.c.v. injection; format: in vivo, rat
Method: Alpha-MSH and desacetyl-α-MSH both couple melanocortin receptors to either adenylyl cyclase or calcium-signalling pathways in vitro. To characterise the signal transduction pathways engaged by α-MSH and desacetyl-α-MSH in vivo, rats received an intracerebroventricular (i.c.v.) injection of either phosphate buffered saline (PBS), α-MSH or desacetyl-α-MSH. Three hours later, food intake was measured and hypothalamic tissues were collected for 2D gel electrophoresis-based proteome analysis.
Adult male Wistar rats (50-60 days old, 230-260 g at the beginning of the experiment) were maintained in individual cages under controlled temperature (23° C.) and reverse lighting (1000-2200 lights off). Standard laboratory chow (NZ Stockfeed Ltd) and tap water were available ad libitum during the adaptation phase. During this time animals were handled daily to minimize the effects of stress on food intake during experiments. Body weight was measured daily before, and one week after cannulation. Any animal showing signs of illness, such as weight loss, poor grooming, or decreased activity, was removed from the study. All animal procedures undertaken were approved by the Animal Ethics Committee of the University of Auckland.
After 7 days of adaptation, animals were subject to cannula placement surgery under 3% halothane/O2 anaesthesia. A permanent lateral ventricle infusion cannula (6-mm 21 gauge) was placed on top of the dura at 7.5 mm anterior from stereotaxic zero, 1.5 mm to the right of the mid-sagittal line, and secured to the skull with dental cement. Animals were allowed at least 7 days to recover from surgery before injections.
Rats were fasted overnight before the day of experiment.
Under 3% halothane/O2 anaethesia rats were infused icv through a 12-mm 27-gauge needle, connected to 20-cm length tubing attached to a syringe. Infusions were performed in the early dark phase between 1000 and 1130 hr using motor driven infusion pumps at a rate of 1.0 μl/min over 10 min. Movement of a 0.2 ml air-space introduced between the 0.9% saline solution filling the PE10 tubing-syringe system and the test solution served as an indicator of a successful infusion. At the end of each experiment animals were euthanised by pentobarbital overdose, and cannula placement was confirmed by visual inspection of the cannula tip location within the brain ventricular system.
Only one of these proteins was common to α-MSH and desacetyl-α-MSH. A combination of Reverse-phase HPLC followed by Edman protein sequencing, and peptide mass fingerprinting technique using MALDI-TOF mass spectrometry were used to identify the proteins of interest. The proteomic data provide a snap-shot of the protein expression patterns in the hypothalamus 3 hours post i.c.v. administration of the melanocortin peptides.

hypothalamic proteins [2] = experiment: Hypothalamic proteins after subcutaneous injection of new-born rats for 14 days; format: in vivo, rat; settings: hypothalamus, s.c. for 14 days
Method: Tables 3 and 4 represent data from a neonatal study, where the two MSH peptides were injected subcutaneously into new-born rats for 14 days, and the changes in hypothalamic proteins assessed with the same method as the above study.
Adult female Wistar rats were housed in plastic cages and kept on a 12-h dark/light cycle. Animals received tap water and rat pellets ad libitum and were mated with males of the same strain. Each litter of new-born Wistar rats was culled to 9 pups per mother.
PBS or freshly prepared peptide solutions made up freshly in PBS containing 0.1% BSA were injected subcutaneously once per day in a volume of 40 μl for 14 days. Animals were injected on day 14 and 1 h later they were euthanised using sodium pentobarbital.

3T3 L1 adipocytes = experiment: Triglyceride release from 3T3 L1 adipocytes (peptide stimulation assay); format: cell-based, murine; settings: 4 hours, 2 assays combined
Method: • 2.1 The objective of this study was to determine the effects of a-MSH and desacetyl a-MSH on leptin and triglyceride production in murine 3T3 L1 adipocytes. • 2.2 Pre-adipocytes were seeded in 6-well plates and 2 days post confluence (Day 2) were differentiated with […] indomethacin+5 ug/mL insulin (described in previous documents). • 2.3 On Day 13 adipocytes were stimulated with 4 doses each of a-MSH and desacetyl a-MSH (or no peptide added) for 4 hours. • 2.4 Medium was removed from the wells and leptin and triglyceride levels measured. • 2.5 Intracytoplasmic lipid accumulation was measured by staining with Oil red O.
• 4.1 Medium=a-MEM+0.5% BSA (100 mL a-MEM+0.5 g BSA) • 4.2 Doses of a-MSH and da-MSH (stocks in −80° C. freezer=1 ug/ul), using MW of a-MSH. • 1 M=1665 g/L=1665 mg/mL • 1 mM=1.665 mg/mL • 1 uM=1.665 ug/mL • 1.665 ug/mL=3.3 ug/2 mL in each well • 1/10 dilution of 1 ug/ul (stock)=0.1 ug/ul. 33 ul=3.3 ug. • Prepare 1/10 dilution of freezer stock (1 ug/ul) to make 0.1 ug/ul, using a-MEM+0.5% BSA as diluent. • Make 3 serial dilutions of 1/10 to add 33 ul to each well in 6-well plate. • Doses are in triplicate wells, so require 3×33=99 ul for each dose.
• 5.1 Assay is performed on Day 14 after initiation of cell differentiation. […]

[3] = hypothalamus, 3 h after i.c.v. injection, rats

SYSMEHFRWGKPV [desacetyl-α-MSH, non-acetylated form of α-MSH, obtained from Bachem]
number of hypothalamic proteins with expression significantly different from PBS (hypothalamic proteins [1]; 3 hours post i.c.v., p<0.05): 20
Cu/Zn superoxide dismutase (p1347), effect compared to control (hypothalamic proteins [1]; [3]): 1.4 fold decrease
Protein disulfide isomerase (p261), effect compared to control (hypothalamic proteins [1]; [3]): 1.4 fold decrease
gamma-enolase (p1438), effect compared to control (hypothalamic proteins [1]; [3]): 1.7 fold decrease
glyceraldehyde-3-phosphate-dehydrogenase (p1210), effect compared to control (hypothalamic proteins [1]; [3]): 1.4 fold decrease
phosphatidylethanolamine binding protein (p1267), effect compared to control (hypothalamic proteins [1]; [3]): 2.5 fold decrease
triosephosphate isomerase (p1521), effect compared to control (hypothalamic proteins [1]; [3]): 1.4 fold decrease
ATP synthase, H+ transporting (p1379), level compared to control (hypothalamic proteins [2]): 1.7 fold decrease
RIKEN cDNA0610011D08 (p1381), level compared to control (hypothalamic proteins [2]): 3.3 fold increase
cofilin (p1854), level compared to control (hypothalamic proteins [2]): 1.9 fold increase
creatine kinase brain (p1079), level compared to control (hypothalamic proteins [2]): 1.9 fold increase
creatine kinase brain (p1251), level compared to control (hypothalamic proteins [2]): 2.1 fold increase
dihydropyrimidinase-like 2 (p537), level compared to control (hypothalamic proteins [2]): 2.5 fold decrease
heat shock protein (p1445), level compared to control (hypothalamic proteins [2]): 2.0 fold increase
hypothetical protein XP_112457 (p1936), level compared to control (hypothalamic proteins [2]): 2.2 fold increase
prohibitin homologue (p1458), level compared to control (hypothalamic proteins [2]): 1.7 fold increase
protein kinase C inhibitor (p1790), level compared to control (hypothalamic proteins [2]): 1.8 fold increase
similar to SH3-containing protein SH3GLB2 (p1557), level compared to control (hypothalamic proteins [2]): 4.0 fold increase
similar to phosphoglycerate kinase (p1363), level compared to control (hypothalamic proteins [2]): 1.6 fold increase
spectrin fragment (p1362), level compared to control (hypothalamic proteins [2]): 2.5 fold decrease
stathmin (p1610), level compared to control (hypothalamic proteins [2]): 2.6 fold increase
stathmin P*Ser38 (p1588), level compared to control (hypothalamic proteins [2]): 1.7 fold increase
triosephosphate isomerase (p1339), level compared to control (hypothalamic proteins [2]): 2.1 fold increase
tubulin beta (p1520), level compared to control (hypothalamic proteins [2]): 1.6 fold increase
TRIGLYCERIDE RESPONSE, MEAN (3T3 L1 adipocytes; 100 nM): 111.4 % OF CONTROL
TRIGLYCERIDE RESPONSE, MEAN (3T3 L1 adipocytes; 1000 nM): 110.0 % OF CONTROL
